Measured values as given in publication PMC6522510 (Nature Communications, 2019).

Tests used:
Parameters in all cases: species or system AML cell lines (8); Primary HTS, single concentration about 10 uM, Cell Titer Glo viability; log10 luminescence, per cent inhibition relative to cycloheximide control
Settings in all cases: 72 h, relative to cycloheximide control, log10 luminescence; inhibitor
[1] = tested on: M07e
[2] = tested on: MV4-11
[3] = tested on: CMK
[4] = tested on: CHRF288-11
[5] = tested on: U937
[6] = tested on: MOLM-13
[7] = tested on: ML-2
[8] = tested on: CMS

With `COc1ccc(C2=C(N3CCc4ccccc43)C(=O)NC2=O)cc1` [SJ000573061-1, DH97836-162A1] the M07e %inh [1] was 1.612%, the MV4-11 %inh [2] was 5.926% and the CMK %inh [3] was 1.284%. It also gave a CHRF288-11 %inh [4] of 16.97%, a U937 %inh [5] of 9.443% and an MOLM-13 %inh [6] of -1.299%. For the same compound, the ML-2 %inh [7] was 4.148% and the CMS %inh [8] was 1.472%.

Compound `CCc1cccc(CC)c1/C=C/c1cncc(C(=O)NC)c1` [SJ000573062-1, U12068/83/1] has an M07e %inh [1] of 15.2%, an MV4-11 %inh [2] of -0.1109% and a CMK %inh [3] of 82.75%. It also gave a CHRF288-11 %inh [4] of 36.66%, a U937 %inh [5] of 29.57% and an MOLM-13 %inh [6] of 18.25%. The ML-2 %inh [7] was 7.466% and the CMS %inh [8] was 0.8952%.

For `COc1cc(Nc2ncc3c(C)nc(-c4cccc(Oc5ccccc5)c4)n3n2)cc(OC)c1OC` [SJ000573063-1, U19891/44/1], the M07e %inh [1] was 11.27%, the MV4-11 %inh [2] was 46.32% and the CMK %inh [3] was 25.77%. It also gave a CHRF288-11 %inh [4] of 8.926%, a U937 %inh [5] of 10.08% and an MOLM-13 %inh [6] of 53.84%. For the same compound, the ML-2 %inh [7] was 2.68% and the CMS %inh [8] was 22.07%.

`CCN1CCC(CC(=O)Nc2n[nH]c3nnc(-c4cccc(F)c4F)cc23)CC1` [SJ000573064-1, VB101259-076A3] was tested, and the M07e %inh [1] was 13.75%, the MV4-11 %inh [2] was 39.53% and the CMK %inh [3] was 96.65%. The CHRF288-11 %inh [4] was 30.8%, the U937 %inh [5] was 13.36% and the MOLM-13 %inh [6] was 13.03%. It also gave an ML-2 %inh [7] of 6.747% and a CMS %inh [8] of 104.4%.

Compound `Cn1cc(C=C2C(=O)Nc3cccnc32)c2ccccc21` [SJ000573065-1, U14362/24/1 | GW-441756 | GW441756] has an M07e %inh [1] of -6.294%, an MV4-11 %inh [2] of 36.15% and a CMK %inh [3] of 2.086%. The CHRF288-11 %inh [4] was -4.894%, the U937 %inh [5] was -3.233% and the MOLM-13 %inh [6] was 21.32%. For the same compound, the ML-2 %inh [7] was -1.442% and the CMS %inh [8] was -3.947%.

Compound `NCc1ccc(-n2c(-c3nonc3N)nc3cnccc32)cc1` [SJ000573066-1, CP100101-172A1] has an M07e %inh [1] of 5.233%, an MV4-11 %inh [2] of 62.53% and a CMK %inh [3] of 18.18%. It also gave a CHRF288-11 %inh [4] of 11.55%, a U937 %inh [5] of 21.07% and an MOLM-13 %inh [6] of 27.71%. It also gave an ML-2 %inh [7] of 11.91% and a CMS %inh [8] of 11.21%.

`O=C(Nc1n[nH]c2cc(-c3ccccc3)ccc12)C1CC1` [SJ000573067-1, VB100064-117A1] showed an M07e %inh [1] of 17.84%, an MV4-11 %inh [2] of 0.9726% and a CMK %inh [3] of 85.27%. The CHRF288-11 %inh [4] was 40.96%, the U937 %inh [5] was 46.5% and the MOLM-13 %inh [6] was 40.31%. For the same compound, the ML-2 %inh [7] was 19.77% and the CMS %inh [8] was 3.176%.

Work on `Cc1cc(O)cc(C)c1/C=C/c1cncc(C(N)=O)c1` [SJ000573068-1, U11805/173/2] yielded an M07e %inh [1] of 72.97%, an MV4-11 %inh [2] of 70.37% and a CMK %inh [3] of 90.65%. It also gave a CHRF288-11 %inh [4] of 44.74%, a U937 %inh [5] of 80.88% and an MOLM-13 %inh [6] of 75.99%. The ML-2 %inh [7] was 51.45% and the CMS %inh [8] was 51.62%.

With `CNC(=O)c1cncc(/C=C/c2ccccc2C)c1` [SJ000573069-1, U12068/59/1] the M07e %inh [1] was 4.224%, the MV4-11 %inh [2] was -0.4269% and the CMK %inh [3] was -3.696%. It also gave a CHRF288-11 %inh [4] of -2.201%, a U937 %inh [5] of -1.047% and an MOLM-13 %inh [6] of -1.542%. It also gave an ML-2 %inh [7] of -0.01519% and a CMS %inh [8] of 0.1448%.

`CNC(=O)c1cncc(/C=C/c2ccccc2Cl)c1` [SJ000573070-1, U12068/61/1] was tested, and the M07e %inh [1] was 31.9%, the MV4-11 %inh [2] was -1.892% and the CMK %inh [3] was 93.63%. For the same compound, the CHRF288-11 %inh [4] was 33.2%, the U937 %inh [5] was 0.1459% and the MOLM-13 %inh [6] was 4.101%. The ML-2 %inh [7] was 26.34% and the CMS %inh [8] was -0.2342%.

Work on `CS(=O)(=O)CCNCc1nc(-c2ccc3ncnc(Nc4ccc(OCc5cccc(C(F)(F)F)c5)cc4)c3c2)cs1` [SJ000573071-1, U14859/60/2] yielded an M07e %inh [1] of 1.42%, an MV4-11 %inh [2] of 64.74% and a CMK %inh [3] of 3.287%. It also gave a CHRF288-11 %inh [4] of -1.328%, a U937 %inh [5] of 0.6329% and an MOLM-13 %inh [6] of 70.81%. For the same compound, the ML-2 %inh [7] was 1.048% and the CMS %inh [8] was 1.221%.

`c1ccc(Nc2ncc(-c3ccccc3)o2)cc1` [SJ000573072-1, U13103/99/1] was tested, and the M07e %inh [1] was -2.471%, the MV4-11 %inh [2] was 59.12% and the CMK %inh [3] was 6.254%. The CHRF288-11 %inh [4] was 2.769%, the U937 %inh [5] was 3.569% and the MOLM-13 %inh [6] was 84.62%. The ML-2 %inh [7] was 3.842% and the CMS %inh [8] was -0.2616%.

In the case of `COc1ccc(-c2nn3ncccc3c2-c2ccnc(Nc3ccc(Cl)c(C(F)(F)F)c3)n2)cc1` [SJ000573073-1, U17838/183/2], the M07e %inh [1] is reported as -2.862%, the MV4-11 %inh [2] is reported as 3.163% and the CMK %inh [3] is reported as 3.073%. The CHRF288-11 %inh [4] was 1.294%, the U937 %inh [5] was 0.7639% and the MOLM-13 %inh [6] was -0.8658%. It also gave an ML-2 %inh [7] of -1.529% and a CMS %inh [8] of 0.1387%.

Work on `CN1CCC(C(=O)Nc2n[nH]c3nnc(-c4ccccc4)cc23)CC1` [SJ000573074-1, JW48822-132A0] yielded an M07e %inh [1] of 2.861%, an MV4-11 %inh [2] of 34.03% and a CMK %inh [3] of 70.18%. The CHRF288-11 %inh [4] was 65.15%, the U937 %inh [5] was 1.724% and the MOLM-13 %inh [6] was 8.108%. For the same compound, the ML-2 %inh [7] was 3.693% and the CMS %inh [8] was 83.36%.

For `C#Cc1cccc(Nc2ncnc3ccc(OCCCCNCCS(C)(=O)=O)cc23)c1` [SJ000573075-1, U14819/194/1], the M07e %inh [1] was -0.9936%, the MV4-11 %inh [2] was -0.7985% and the CMK %inh [3] was 9.032%. The CHRF288-11 %inh [4] was 4.443%, the U937 %inh [5] was -0.213% and the MOLM-13 %inh [6] was 9.087%. For the same compound, the ML-2 %inh [7] was 4.028% and the CMS %inh [8] was 3.196%.

In the case of `O=C1Nc2ccc(C(=O)c3ccco3)cc2C1=Cc1cc(Cl)c(O)c(Cl)c1` [SJ000573076-1, U12068/71/3], the M07e %inh [1] is reported as 2.097%, the MV4-11 %inh [2] is reported as 1.256% and the CMK %inh [3] is reported as -2.763%. For the same compound, the CHRF288-11 %inh [4] was 1.037%, the U937 %inh [5] was -1.189% and the MOLM-13 %inh [6] was 0.2179%. For the same compound, the ML-2 %inh [7] was 3.323% and the CMS %inh [8] was 3.176%.

In the case of `Cc1ccc2c(-c3ccnc(Nc4ccccc4)n3)c(-c3ccc(F)cc3)nn2n1` [SJ000573077-1, U18020/155/1], the M07e %inh [1] is reported as 7.072%, the MV4-11 %inh [2] is reported as -0.5842% and the CMK %inh [3] is reported as 0.5232%. The CHRF288-11 %inh [4] was 5.564%, the U937 %inh [5] was 0.3541% and the MOLM-13 %inh [6] was -1.366%. It also gave an ML-2 %inh [7] of 0.6284% and a CMS %inh [8] of 18.56%.

Work on `COc1ccc(-c2nn3ncccc3c2-c2ccnc(Nc3ccc4c(c3)OCCO4)n2)cc1` [SJ000573078-1, U17838/181/2] yielded an M07e %inh [1] of 5.255%, an MV4-11 %inh [2] of -0.1391% and a CMK %inh [3] of -0.1559%. The CHRF288-11 %inh [4] was 4.025%, the U937 %inh [5] was 3.638% and the MOLM-13 %inh [6] was 3.964%. For the same compound, the ML-2 %inh [7] was 1.307% and the CMS %inh [8] was 4.836%.

Work on `COc1ccc(-c2nn3ncccc3c2-c2ccnc(Nc3cccc(C(F)(F)F)c3)n2)cc1` [SJ000573079-1, U17838/180/3] yielded an M07e %inh [1] of 14.72%, an MV4-11 %inh [2] of 8.211% and a CMK %inh [3] of 4.001%. For the same compound, the CHRF288-11 %inh [4] was 5.707%, the U937 %inh [5] was 2.119% and the MOLM-13 %inh [6] was 3.38%. For the same compound, the ML-2 %inh [7] was -0.6403% and the CMS %inh [8] was 13.73%.

For `FC(F)(F)c1cccc(-c2nn3ncccc3c2-c2ccnc(Nc3ccc4c(c3)OCCO4)n2)c1` [SJ000573080-1, U18020/138/1], the M07e %inh [1] was -0.1766%, the MV4-11 %inh [2] was 2.308% and the CMK %inh [3] was 6.614%. The CHRF288-11 %inh [4] was 0.7655%, the U937 %inh [5] was 3.041% and the MOLM-13 %inh [6] was 3.832%. It also gave an ML-2 %inh [7] of 2.472% and a CMS %inh [8] of 2.426%.

In the case of `Fc1ccc(-c2nn3ncccc3c2-c2ccnc(Nc3ccc4c(c3)OCCO4)n2)cc1` [SJ000573081-1, U18020/136/2], the M07e %inh [1] is reported as 1.748%, the MV4-11 %inh [2] is reported as 14.42% and the CMK %inh [3] is reported as 3.915%. For the same compound, the CHRF288-11 %inh [4] was 0.4339%, the U937 %inh [5] was 35.33% and the MOLM-13 %inh [6] was 1.143%. It also gave an ML-2 %inh [7] of -1.741% and a CMS %inh [8] of 13.71%.

`NC(=O)c1cc(-c2ccncc2)cc(-c2ccccc2)c1N` [SJ000573082-1, R11976/162/1] showed an M07e %inh [1] of -1.265%, an MV4-11 %inh [2] of 10.06% and a CMK %inh [3] of 2.399%. It also gave a CHRF288-11 %inh [4] of 4.55%, a U937 %inh [5] of 14.29% and an MOLM-13 %inh [6] of 11%. The ML-2 %inh [7] was -0.3373% and the CMS %inh [8] was 3.949%.

Compound `CC1=C(C(=O)Nc2ccc3[nH]ncc3c2)C(c2ccc(F)cc2)N=C(c2ccc(C(F)(F)F)nc2)N1` (stereo not shown) [SJ000573083-1, GW204431-043A1] has an M07e %inh [1] of 0.1515%, an MV4-11 %inh [2] of 0.5281% and a CMK %inh [3] of 6.755%. For the same compound, the CHRF288-11 %inh [4] was 5.88%, the U937 %inh [5] was -1.3% and the MOLM-13 %inh [6] was 1.317%. For the same compound, the ML-2 %inh [7] was 3.386% and the CMS %inh [8] was -1.221%.
